In this experiment the target is T1, recombinant PDE IVA enzyme (Homo sapiens, UniProt P27815).
T1 construct: made in house; host or cells: yeast (inducible vector)
In words: Isolated Recombinant Human PDE IVA Enzyme. Format: biochemical. The note with it: 0.1 μM [3H]-cAMP, pH 7.5, 30° C. From the text: 1. Isolated Recombinant Human PDE IVA Enzyme
A gene encoding human PDE IV has been cloned from human monocytes (Livi, et al., 1990, Molecular and Cellular Biology, 10, 2678). Using similar procedures we have cloned human PDE IV genes from a number of sources including eosinophils, neutrophils, lymphocytes, monocytes, brain and neuronal tissues. These genes have been transfected into yeast using an inducible vector and various recombinant proteins have been expressed which have the biochemical characteristics of PDE IV (Beavo and Reifsnyder, 1990, TIPS, 11, 150). These recombinant enzymes, particularly the human eosinophil recombinant PDE IVA, have been used as the basis of a screen for potent, selective PDE IV inhibitors.
The enzymes were purified to isoenzyme homogeneity using standard chromatographic techniques.
Phosphodiesterase activity was assayed as follows. The reaction was conducted in 150 μl of standard mixture containing (final concentrations): 50 mM 2-[[tris(hydroxymethyl)methyl]amino]-1-ethanesulphonic acid (TES) --NaOH buffer (pH 7.5), 10 mM MgCl2, 0.1 μM [^3 H]-cAMP and vehicle or various concentrations of the test compounds. […] Recovery of [^3 H]-5'AMP was determined using the [^14 C]-5'AMP and all assays were conducted in the linear range of the reaction. Results were expressed as IC50 values.

The structures appear in SMILES notation.

Broadly, the IC50 is the midpoint of a concentration-inhibition curve.

T1 sequence (P27815 whole entry): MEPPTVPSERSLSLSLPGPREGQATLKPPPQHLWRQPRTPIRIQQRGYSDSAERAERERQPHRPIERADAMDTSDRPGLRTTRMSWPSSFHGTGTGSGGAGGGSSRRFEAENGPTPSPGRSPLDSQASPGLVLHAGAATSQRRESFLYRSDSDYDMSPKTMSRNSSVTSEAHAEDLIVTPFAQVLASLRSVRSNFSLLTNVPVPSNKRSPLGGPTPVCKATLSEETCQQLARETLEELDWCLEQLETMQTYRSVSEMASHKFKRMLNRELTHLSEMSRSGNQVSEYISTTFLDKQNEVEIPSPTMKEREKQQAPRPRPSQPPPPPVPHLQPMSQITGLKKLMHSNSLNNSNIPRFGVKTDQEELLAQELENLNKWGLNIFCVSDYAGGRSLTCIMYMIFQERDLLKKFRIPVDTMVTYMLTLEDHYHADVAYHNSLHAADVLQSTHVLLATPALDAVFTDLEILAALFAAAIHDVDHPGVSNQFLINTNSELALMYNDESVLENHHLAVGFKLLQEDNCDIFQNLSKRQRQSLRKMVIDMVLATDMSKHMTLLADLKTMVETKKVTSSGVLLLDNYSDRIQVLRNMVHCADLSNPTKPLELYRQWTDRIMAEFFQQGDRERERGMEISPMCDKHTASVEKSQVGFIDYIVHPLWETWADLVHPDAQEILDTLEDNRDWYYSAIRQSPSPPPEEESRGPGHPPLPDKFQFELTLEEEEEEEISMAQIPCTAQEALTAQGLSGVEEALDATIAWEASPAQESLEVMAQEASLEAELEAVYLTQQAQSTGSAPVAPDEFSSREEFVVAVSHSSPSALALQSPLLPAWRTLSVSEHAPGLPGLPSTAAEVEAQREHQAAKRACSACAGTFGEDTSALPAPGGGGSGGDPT

With `CNC(=C[N+](=O)[O-])Nc1cccc([C@@H](Cc2ccncc2)c2ccc(OC)c(OC3CCCC3)c2)c1` [Example 2, (R)-N-{(EIZ)-1-{3-[1-[3-Cyclopentyloxy-4-methoxyphenyl]-2-(4-pyridinyl)ethyl]anilino}-2-nitroethenyl}-N-methylamine], the IC50 was 3.3 nM.
On to `CNC(=NC#N)Nc1cccc([C@@H](Cc2ccncc2)c2ccc(OC)c(OC3CCCC3)c2)c1` [Example 4, (R)-N"-Cyano-N'-{3-[1-[3-cyclopentyloxy-4-methoxyphenyl]-2-(4-pyridinyl)ethyl]phenyl}-N-methylamine], for which the IC50 was found to be 0.5 nM.

(Values after patent publication US5859034A, “Tri-substituted phenyl compounds which have useful pharmaceutical activity” (Celltech Therapeutics, Limited, priority 1996, dated 1999).)
